In article PMC6641755 (ACS Omega, 2017):

How the values were obtained:
Format in all cases: binding
[1] = biological target: Bruton's tyrosine kinase (Btk) kinase domain (Homo sapiens, UniProt Q06187); experiment: ITC titration
BLK = BLK (Homo sapiens, UniProt P51451); experiment: KinomeScan
[2] = biological target: T1, TYK2 (JH1domain-catalytic) (Homo sapiens, UniProt P29597); experiment: KinomeScan
T1 sequence (P29597 897-1176 limits assumed): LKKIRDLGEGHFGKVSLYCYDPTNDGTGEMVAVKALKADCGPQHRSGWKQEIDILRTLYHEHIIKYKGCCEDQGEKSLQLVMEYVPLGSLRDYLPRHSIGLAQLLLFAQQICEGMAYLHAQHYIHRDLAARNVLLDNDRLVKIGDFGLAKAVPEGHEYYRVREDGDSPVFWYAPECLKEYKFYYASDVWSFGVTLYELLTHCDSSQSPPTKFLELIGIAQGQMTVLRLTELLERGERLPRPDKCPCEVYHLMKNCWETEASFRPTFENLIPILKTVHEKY

Chain of BLK (P51451 2-505): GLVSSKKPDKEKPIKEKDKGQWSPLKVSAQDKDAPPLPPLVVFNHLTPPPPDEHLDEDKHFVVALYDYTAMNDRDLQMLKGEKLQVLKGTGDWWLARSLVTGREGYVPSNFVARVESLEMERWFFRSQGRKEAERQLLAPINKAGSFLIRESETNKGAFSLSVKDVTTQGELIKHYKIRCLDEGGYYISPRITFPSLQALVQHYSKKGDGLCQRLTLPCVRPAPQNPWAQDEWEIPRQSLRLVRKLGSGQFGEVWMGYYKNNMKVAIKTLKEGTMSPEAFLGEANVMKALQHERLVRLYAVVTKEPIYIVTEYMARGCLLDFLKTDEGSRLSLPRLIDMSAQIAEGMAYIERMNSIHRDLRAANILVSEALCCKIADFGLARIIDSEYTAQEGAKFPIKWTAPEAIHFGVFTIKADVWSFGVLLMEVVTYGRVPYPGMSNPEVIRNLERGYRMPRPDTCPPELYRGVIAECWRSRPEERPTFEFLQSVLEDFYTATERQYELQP
Chain of Bruton's tyrosine kinase (Btk) kinase domain (Q06187 387-569): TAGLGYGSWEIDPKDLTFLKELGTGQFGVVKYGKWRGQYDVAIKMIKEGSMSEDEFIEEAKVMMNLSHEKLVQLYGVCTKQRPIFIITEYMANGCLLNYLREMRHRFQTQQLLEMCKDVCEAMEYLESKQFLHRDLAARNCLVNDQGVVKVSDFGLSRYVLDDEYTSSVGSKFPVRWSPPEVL

Kd [1]: 250 nM
activity at 10 µM (BLK): 0.4%
activity at 10 µM [2]: 0.8%
SMILES: c1nc2c(Nc3ccc4c(c3)OCCO4)nc(Nc3ccc4c(c3)OCCO4)nc2[nH]1 [L6, N2,N6-bis(2,3-dihydrobenzo[b][1,4]dioxin-6-yl)-9H-purine-2,6-diamine]
